Assay results from publication PMC7490411 (Signal Transduction and Targeted Therapy, 2020).

What was measured:
Test in all cases: KINOMEscan
Type in all cases: binding
Settings in all cases: 1000 nM
AAK1 = tested on: AAK1
AKT2 = tested on: AKT2
AMPK-alpha1 = tested on: AMPK-alpha1
BLK = biological target: T1, BLK (Homo sapiens, UniProt P51451)
T1 construct: purchased Invitrogen (Carlsbad, CA, USA)

BUB1 = tested on: BUB1
CAMK4 = tested on: CAMK4
CLK1 = tested on: CLK1
DAPK1 = tested on: DAPK1
DAPK2 = tested on: DAPK2
DCAMKL3 = tested on: DCAMKL3
DRAK1 = tested on: DRAK1
EGFR(T790M) = tested on: EGFR(T790M)
EPHB2 = tested on: EPHB2
EPHB4 = tested on: EPHB4
EPHB6 = tested on: EPHB6
ERBB2 = tested on: ERBB2
FGR = tested on: FGR
GRK1 = tested on: GRK1
GSK3B = tested on: GSK3B
HPK1 = tested on: HPK1
HUNK = tested on: HUNK
IKK-epsilon = tested on: IKK-epsilon
IRAK1 = tested on: IRAK1
[1] = tested on: JAK2(JH1domain-catalytic)
KIT = tested on: KIT
KIT(V559D) = tested on: KIT(V559D)
KIT(V559D,V654A) = tested on: KIT(V559D,V654A)
LYN = tested on: LYN
MAP3K4 = tested on: MAP3K4
MAP4K5 = tested on: MAP4K5
MERTK = tested on: MERTK
MET = tested on: MET
MYLK = tested on: MYLK
NDR2 = tested on: NDR2
PCTK3 = tested on: PCTK3
PIK3C2G = tested on: PIK3C2G
PIK3CA(E545K) = tested on: PIK3CA(E545K)
PIK3CA(M1043I) = tested on: PIK3CA(M1043I)
PIK3CA(Q546K) = tested on: PIK3CA(Q546K)
PIM2 = tested on: PIM2
PIP5K1A = tested on: PIP5K1A
PKNB(M.tuberculosis) = tested on: PKNB(M.tuberculosis)
RIOK3 = tested on: RIOK3
ROS1 = tested on: ROS1
[2] = tested on: RPS6KA4(Kin.Dom.1-N-terminal)
SGK2 = tested on: SGK2
SLK = tested on: SLK
SNRK = tested on: SNRK
SRPK1 = tested on: SRPK1
TAOK1 = tested on: TAOK1
TGFBR1 = tested on: TGFBR1
TGFBR2 = tested on: TGFBR2
TNIK = tested on: TNIK
TNK1 = tested on: TNK1
TRKA = tested on: TRKA
TRKB = tested on: TRKB
ULK1 = tested on: ULK1
VPS34 = tested on: VPS34
YANK1 = tested on: YANK1
ZAK = tested on: ZAK

T1 sequence (P51451 whole entry): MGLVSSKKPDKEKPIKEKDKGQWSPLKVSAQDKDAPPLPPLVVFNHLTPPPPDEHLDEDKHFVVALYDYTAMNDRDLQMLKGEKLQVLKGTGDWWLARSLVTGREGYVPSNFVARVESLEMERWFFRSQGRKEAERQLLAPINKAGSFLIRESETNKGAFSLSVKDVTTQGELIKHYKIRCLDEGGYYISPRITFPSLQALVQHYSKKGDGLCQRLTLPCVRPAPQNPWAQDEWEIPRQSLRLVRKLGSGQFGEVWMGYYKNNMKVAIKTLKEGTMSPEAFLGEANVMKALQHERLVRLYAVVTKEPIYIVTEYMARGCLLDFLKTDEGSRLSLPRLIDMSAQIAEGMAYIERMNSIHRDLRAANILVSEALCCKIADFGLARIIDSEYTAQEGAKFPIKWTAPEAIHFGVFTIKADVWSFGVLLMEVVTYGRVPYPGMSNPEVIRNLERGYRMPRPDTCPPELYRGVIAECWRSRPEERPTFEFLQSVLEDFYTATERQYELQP

C=CC(=O)Nc1cc(Nc2cc(-c3cccc(NC(=O)c4cc5c(s4)CCCC5)c3C)cn(C)c2=O)ccc1N1CCN(CC)CC1 [CHMFL-BTK-85]
Percent Control (AAK1): 82% | Percent Control (AKT2): 88% | Percent Control (AMPK-alpha1): 100% | percent of control kinase binding at 1 µM (BLK): 57% | Percent Control (BUB1): 100% | Percent Control (CAMK4): 100% | Percent Control (CLK1): 88% | Percent Control (DAPK1): 98% | Percent Control (DAPK2): 100% | Percent Control (DCAMKL3): 100% | Percent Control (DRAK1): 97% | Percent Control (EGFR(T790M)): 98% | Percent Control (EPHB2): 84% | Percent Control (EPHB4): 67% | Percent Control (EPHB6): 69% | Percent Control (ERBB2): 99% | Percent Control (FGR): 20% | Percent Control (GRK1): 84% | Percent Control (GSK3B): 100% | Percent Control (HPK1): 85% | Percent Control (HUNK): 100% | Percent Control (IKK-epsilon): 53% | Percent Control (IRAK1): 100% | Percent Control [1]: 100% | Percent Control (KIT): 92% | Percent Control (KIT(V559D)): 79% | Percent Control (KIT(V559D,V654A)): 100% | Percent Control (LYN): 100% | Percent Control (MAP3K4): 92% | Percent Control (MAP4K5): 100% | Percent Control (MERTK): 84% | Percent Control (MET): 62% | Percent Control (MYLK): 66% | Percent Control (NDR2): 34% | Percent Control (PCTK3): 86% | Percent Control (PIK3C2G): 63% | Percent Control (PIK3CA(E545K)): 98% | Percent Control (PIK3CA(M1043I)): 71% | Percent Control (PIK3CA(Q546K)): 100% | Percent Control (PIM2): 87% | Percent Control (PIP5K1A): 96% | Percent Control (PKNB(M.tuberculosis)): 88% | Percent Control (RIOK3): 100% | Percent Control (ROS1): 98% | Percent Control [2]: 87% | Percent Control (SGK2): 100% | Percent Control (SLK): 95% | Percent Control (SNRK): 86% | Percent Control (SRPK1): 100% | Percent Control (TAOK1): 94% | Percent Control (TGFBR1): 88% | Percent Control (TGFBR2): 100% | Percent Control (TNIK): 99% | Percent Control (TNK1): 75% | Percent Control (TRKA): 86% | Percent Control (TRKB): 100% | Percent Control (ULK1): 100% | Percent Control (VPS34): 100% | Percent Control (YANK1): 100% | Percent Control (ZAK): 99%
